From patent publication US20260055114A1, “IMIDAZO[1,2-B]PYRIDAZINE INHIBITORS OF CYCLIN-DEPENDENT KINASES” (H. LEE MOFFITT CANCER CENTER AND RESEARCH INSTITUTE, INC., priority 2022, published 2026) come the findings set out here.

One test has as its target CDK12 (Homo sapiens, UniProt Q9NYV4). Description: Inhibition of cyclin-dependent kinase 12 (% enzyme activity at 1 uM and IC50). The conditions noted are these: for remaining activity at 1 µM: 1 uM compound. Format: biochemical.
The subject of the next test is MDA-MB-231 cell line. Description: Antiproliferative activity, MDA-MB-231 cell line (GI50). It is filed as cell-based. Conditions: Homo sapiens.
The subject of another test is CCNK. Description: CCNK degradation (DC50, Dmax). Format: cell-based. Conditions: for Dmax (%): CCNK degradation.

CDK12, sequence (Q9NYV4 whole entry): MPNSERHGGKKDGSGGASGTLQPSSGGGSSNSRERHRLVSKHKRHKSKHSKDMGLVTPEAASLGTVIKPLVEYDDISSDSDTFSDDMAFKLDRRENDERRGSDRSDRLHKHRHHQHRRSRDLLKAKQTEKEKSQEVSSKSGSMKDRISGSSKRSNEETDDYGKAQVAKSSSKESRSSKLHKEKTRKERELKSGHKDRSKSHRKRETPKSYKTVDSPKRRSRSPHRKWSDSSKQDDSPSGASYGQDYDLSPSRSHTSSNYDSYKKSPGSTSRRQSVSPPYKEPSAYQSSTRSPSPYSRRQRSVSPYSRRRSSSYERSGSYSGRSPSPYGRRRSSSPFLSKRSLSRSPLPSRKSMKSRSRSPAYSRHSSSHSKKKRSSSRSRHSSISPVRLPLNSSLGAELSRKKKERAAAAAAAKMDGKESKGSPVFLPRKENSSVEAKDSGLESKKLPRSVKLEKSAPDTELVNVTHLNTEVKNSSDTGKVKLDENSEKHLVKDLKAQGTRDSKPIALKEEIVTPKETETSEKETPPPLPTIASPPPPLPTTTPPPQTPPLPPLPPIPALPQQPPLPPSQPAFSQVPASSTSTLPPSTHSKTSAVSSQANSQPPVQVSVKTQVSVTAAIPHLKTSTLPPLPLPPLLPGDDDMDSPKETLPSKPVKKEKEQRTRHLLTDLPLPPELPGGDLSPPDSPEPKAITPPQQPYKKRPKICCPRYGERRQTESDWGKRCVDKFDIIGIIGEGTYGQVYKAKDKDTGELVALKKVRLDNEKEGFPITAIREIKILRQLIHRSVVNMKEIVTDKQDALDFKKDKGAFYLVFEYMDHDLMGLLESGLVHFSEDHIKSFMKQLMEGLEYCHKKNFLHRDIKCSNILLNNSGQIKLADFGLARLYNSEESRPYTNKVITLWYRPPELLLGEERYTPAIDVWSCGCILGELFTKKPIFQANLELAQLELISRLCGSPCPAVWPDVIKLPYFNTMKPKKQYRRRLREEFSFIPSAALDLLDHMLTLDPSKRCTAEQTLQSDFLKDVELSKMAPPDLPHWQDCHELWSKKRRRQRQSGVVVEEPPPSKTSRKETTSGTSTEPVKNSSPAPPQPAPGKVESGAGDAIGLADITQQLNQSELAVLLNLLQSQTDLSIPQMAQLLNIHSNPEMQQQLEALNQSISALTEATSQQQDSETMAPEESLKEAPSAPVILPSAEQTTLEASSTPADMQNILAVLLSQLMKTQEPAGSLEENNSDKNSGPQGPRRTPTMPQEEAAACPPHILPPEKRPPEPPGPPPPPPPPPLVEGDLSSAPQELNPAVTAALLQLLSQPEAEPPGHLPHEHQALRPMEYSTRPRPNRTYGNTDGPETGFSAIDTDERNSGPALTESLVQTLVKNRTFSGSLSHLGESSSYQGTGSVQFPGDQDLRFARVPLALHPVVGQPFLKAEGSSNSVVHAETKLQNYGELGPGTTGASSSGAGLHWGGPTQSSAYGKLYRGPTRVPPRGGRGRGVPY
CDK12, sequence (O75909 whole entry partner): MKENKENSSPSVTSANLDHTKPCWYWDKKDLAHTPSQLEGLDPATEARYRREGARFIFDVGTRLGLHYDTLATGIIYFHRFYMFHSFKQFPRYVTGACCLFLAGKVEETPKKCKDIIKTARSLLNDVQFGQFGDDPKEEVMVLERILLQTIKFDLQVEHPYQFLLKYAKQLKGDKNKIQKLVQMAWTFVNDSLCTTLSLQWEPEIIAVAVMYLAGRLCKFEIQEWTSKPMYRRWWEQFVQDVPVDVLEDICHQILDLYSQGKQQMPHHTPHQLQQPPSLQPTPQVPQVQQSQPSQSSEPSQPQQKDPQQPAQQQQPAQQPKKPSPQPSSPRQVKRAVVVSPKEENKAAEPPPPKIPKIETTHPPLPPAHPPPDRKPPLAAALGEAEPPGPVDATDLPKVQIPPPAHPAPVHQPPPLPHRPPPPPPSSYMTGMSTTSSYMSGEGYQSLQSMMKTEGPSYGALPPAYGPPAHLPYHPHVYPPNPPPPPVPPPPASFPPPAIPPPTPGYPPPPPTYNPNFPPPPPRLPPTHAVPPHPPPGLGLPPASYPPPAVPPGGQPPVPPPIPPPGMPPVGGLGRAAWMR

The term remaining activity denotes the signal under treatment as a percentage of the control signal. What is called GI50 is the concentration at which growth is held to half of that of the control. The DC50 is the concentration giving 50% degradation. `Cc1cc(-c2cnc3c(NCc4nc5cccc(Cl)c5[nH]4)cc(N4CCN(C)CC4)nn23)cs1` [Cmpd 84, N-((7-chloro-1H-benzo[d]imidazol-2-yl)methyl)-6-(4-methylpipcrazin-1-yl)-3-(5-methylthiophen-3-yl) imidazo[1,2-b]pyridazin-8-amine] displayed a remaining activity at 1 µM at CDK12 of 61%. Further, in the test on MDA-MB-231 cell line, the GI50 was 2210 nM. Besides, in the test on CCNK, it took 1500 nM to reach half-maximal degradation (DC50) and the “Dmax (%)” value worked out at 80%.

For orientation: IC50 means the point on the concentration scale where inhibition reaches its midpoint. Higher therefore signals a need for much substance. Consider `FC(F)n1cc(-c2cnc3c(NCc4nc5cc(Cl)c(Cl)cc5[nH]4)cc(N4CCOCC4)nn23)cn1` [Cmpd 42, N-((5,6-dichloro-1H-benzo[d]imidazol-2-yl)methyl)-3-(1-(difluoromethyl)-1H-pyrazol-4-yl)-6-morpholinoimidazo[1,2-b]pyridazin-8-amine], for which the IC50 against CDK12 came to 36 nM. This compound registered a GI50 with MDA-MB-231 cell line of 127 nM. In the test on CCNK, the DC50 came out at 180 nM and the “Dmax (%)” value came out at 100%.

`CN1CCN(c2cc(NCc3nc4cc(Cl)c(Cl)cc4[nH]3)c3ncc(-c4cnn(C(F)F)c4)n3n2)CC1(C)C` [Cmpd 49, N-((5,6-dichloro-1H-benzo[d]imidazol-2-yl)methyl)-3-(1-(difluoromethyl)-1H-pyrazol-4-yl)-6-(3,3,4-trimethylpiperazin-1-yl) imidazo[1,2-b]pyridazin-8-amine]: the GI50 in the test with MDA-MB-231 cell line worked out at 465 nM. For the same compound, in the test on CCNK, the DC50 is 370 nM and the “Dmax (%)” value is listed as 95%.

For the compound `CC(C)n1cc(-c2cnc3c(NCc4nc5cccc(Cl)c5[nH]4)cc(N4CCN(C)CC4)nn23)cn1` [Cmpd 17, N-((7-chloro-1H-benzo[d]imidazol-2-yl)methyl)-3-(1-isopropyl-1H-pyrazol-4-yl)-6-(4-methylpiperazin-1-yl) imidazo[1,2-b]pyridazin-8-amine], on CDK12, the IC50 was 919 nM and the remaining activity at 1 µM came out at 45%. For the same compound, in the test with MDA-MB-231 cell line, the GI50 was found to be 5600 nM. The compound also registered a DC50 in the test with CCNK of 10000 nM.

At CDK12, `NC1CCN(c2cc(NCc3nc4cc(Cl)c(Cl)cc4[nH]3)c3ncc(-c4cnn(C(F)F)c4)n3n2)CC1` [Cmpd 45, 6-(4-aminopiperidin-1-yl)-N-((5,6-dichloro-1H-benzo[d]imidazol-2-yl)methyl)-3-(1-(difluoromethyl)-1H-pyrazol-4-yl) imidazo[1,2-b]pyridazin-8-amine] returned an IC50 of 567 nM. Also, the GI50 in the test with MDA-MB-231 cell line is 365 nM. In the test with CCNK, the DC50 stood at 1200 nM and the “Dmax (%)” value came to 100%.

At CDK12, `FC(F)n1cc(-c2cnc3c(NCc4nc5cc(Cl)c(Cl)cc5[nH]4)cc(N4CCNCC4)nn23)cn1` [Cmpd 43, N-((5,6-dichloro-1H-benzo[d]imidazol-2-yl)methyl)-3-(1-(difluoromethyl)-1H-pyrazol-4-yl)-6-(piperazin-1-yl) imidazo[1,2-b]pyridazin-8-amine] displayed an IC50 of 292 nM. The compound also had a GI50 with MDA-MB-231 cell line of 49 nM. Further, in the test with CCNK, the DC50 was found to be 150 nM and the “Dmax (%)” value worked out at 100%.

On CDK12, `CC(C)n1cc(-c2cnc3c(NCc4nc5cccc(Cl)c5[nH]4)cc(N4CCOCC4)nn23)cn1` [Cmpd 18, N-((7-chloro-1H-benzo[d]imidazol-2-yl)methyl)-3-(1-isopropyl-1H-pyrazol-4-yl)-6-morpholinoimidazo[1,2-b]pyridazin-8-amine] showed an IC50 of 997 nM and a remaining activity at 1 µM of 48%. For the same compound, the GI50 with MDA-MB-231 cell line turned out to be 9920 nM. In the test on CCNK, it took 1800 nM to reach half-maximal degradation (DC50) and the “Dmax (%)” value was 70%.

As to `CN(C)c1cc(NCc2nc3cccc(Cl)c3[nH]2)c2ncc(-c3ccsc3)n2n1` [Cmpd 73, N8-((7-chloro-1H-benzo[d]imidazol-2-yl)methyl)-N6,N6-dimethyl-3-(thiophen-3-yl) imidazo[1,2-b]pyridazine-6,8-diamine], the IC50 against CDK12 turned out to be 1000 nM. For the same compound, in the test on MDA-MB-231 cell line, the GI50 was found to be 5000 nM.
